Results reported in PubChem BioAssay AID248 (DTP/NCI, 2004).
Values joined by “and” are separate entries in the source; they are usually repeats but may differ in a detail not shown here. Identical values can stand only once. Toxic doses and inconclusive results are not listed. Cut-off read from the data, not from the text of the source: active = T/C of 150% or more; inactive = T/C below 125%.

Tested on: L1210 leukemia ip in BDF1 mice, survival T/C
Experiment: NCI In Vivo Anticancer Drug Screen. Data for tumor model L1210 Leukemia (intraperitoneal) in B6D2F1 (BDF1) mice
Conditions: endpoint: mean survival time, higher = longer survival
How it was run: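 Read-out is survival time, reported as the treated-group measurement over the vehicle-control measurement.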

[1] = dose: 100.0 mg/kg/injection, schedule: Q01DX001 (ip), vehicle: carboxymethylcellulose (CMC)
[2] = dose: 100.0 mg/kg/injection, schedule: Q01DX009 (ip), vehicle: saline with Tween-80
[3] = dose: 100.0 mg/kg/injection, schedule: Q04DX003 (ip), vehicle: saline with Tween-80
[4] = dose: 200.0 mg/kg/injection, schedule: Q04DX003 (ip), vehicle: saline with Tween-80
[5] = dose: 400.0 mg/kg/injection, schedule: Q04DX003 (ip), vehicle: saline with Tween-80
[6] = dose: 100.0 mg/kg/injection, schedule: Q01DX009 (ip), vehicle: Klucel (hydroxypropylcellulose) (HPC)
[7] = dose: 100.0 mg/kg/injection, schedule: Q04DX002 (ip), vehicle: Klucel (hydroxypropylcellulose) (HPC)
[8] = dose: 100.0 mg/kg/injection, schedule: Q04DX003 (ip), vehicle: Klucel (hydroxypropylcellulose) (HPC)
[9] = dose: 200.0 mg/kg/injection, schedule: Q01DX009 (ip), vehicle: Klucel (hydroxypropylcellulose) (HPC)
[10] = dose: 200.0 mg/kg/injection, schedule: Q04DX003 (ip), vehicle: Klucel (hydroxypropylcellulose) (HPC)
[11] = dose: 400.0 mg/kg/injection, schedule: Q01DX009 (ip), vehicle: Klucel (hydroxypropylcellulose) (HPC)
[12] = dose: 400.0 mg/kg/injection, schedule: Q04DX003 (ip), vehicle: Klucel (hydroxypropylcellulose) (HPC)

Measured: T/C

O=[N+]([O-])c1ccc(NS(=O)(=O)c2ccc(Cl)c(Cl)c2)cc1
inactive: dose: 12.5 mg/kg/injection, schedule: Q01DX001 (ip), vehicle: other 92 % of control | dose: 12.5 mg/kg/injection, schedule: Q01DX009 (ip), vehicle: gum acacia 101 % of control | dose: 12.5 mg/kg/injection, schedule: Q04DX003 (ip), vehicle: other 95 % of control | dose: 25.0 mg/kg/injection, schedule: Q01DX001 (ip), vehicle: other 97 % of control | dose: 25.0 mg/kg/injection, schedule: Q01DX009 (ip), vehicle: gum acacia 91 % of control | dose: 25.0 mg/kg/injection, schedule: Q04DX003 (ip), vehicle: other 94 % of control | dose: 50.0 mg/kg/injection, schedule: Q01DX001 (ip), vehicle: other 97 % of control | dose: 50.0 mg/kg/injection, schedule: Q04DX003 (ip), vehicle: other 94 % of control

Cc1cc(C)c(C2=C(Br)C(=O)C(c3c(C)cc(C)c(C)c3C)=C(Br)C2=O)c(C)c1C
inactive: dose: 100.0 mg/kg/injection, schedule: Q01DX001 (ip), vehicle: Klucel (hydroxypropylcellulose) (HPC) 98 % of control | dose: 200.0 mg/kg/injection, schedule: Q01DX001 (ip), vehicle: Klucel (hydroxypropylcellulose) (HPC) 103 % of control | dose: 400.0 mg/kg/injection, schedule: Q01DX001 (ip), vehicle: Klucel (hydroxypropylcellulose) (HPC) 98 % of control

CC(C)=CC(=O)C1C(=O)c2ccccc2C1=O
inactive: dose: 50.0 mg/kg/injection, schedule: Q01DX001 (ip), vehicle: carboxymethylcellulose (CMC) 96 % of control | [1] 90 % of control

C=C(NC(=O)Cc1ccccc1)C(=O)OC
inactive: [2] 92 % of control | [3] 102 % of control | dose: 200.0 mg/kg/injection, schedule: Q01DX009 (ip), vehicle: saline with Tween-80 95 % of control | [4] 95 % of control | dose: 400.0 mg/kg/injection, schedule: Q01DX009 (ip), vehicle: saline with Tween-80 95 % of control | [5] 91 % of control

Cc1cccc(C)c1NC(=O)NCc1ccco1
inactive: dose: 25.0 mg/kg/injection, schedule: Q04DX002 (ip), vehicle: Klucel (hydroxypropylcellulose) (HPC) 99 % of control | dose: 50.0 mg/kg/injection, schedule: Q04DX002 (ip), vehicle: Klucel (hydroxypropylcellulose) (HPC) 118 % of control | [6] 103 % of control | [7] 100 % of control and 103 % of control | [8] 103 % of control | [9] 107 % of control | [10] 100 % of control | [11] 102 % of control | [12] 93 % of control

CC1Nc2ccccc2-c2ccccc2C1=O (stereo unspecified)
inactive: [1] 107 % of control | dose: 200.0 mg/kg/injection, schedule: Q01DX001 (ip), vehicle: carboxymethylcellulose (CMC) 102 % of control | dose: 400.0 mg/kg/injection, schedule: Q01DX001 (ip), vehicle: carboxymethylcellulose (CMC) 102 % of control

N#Cc1nccc2ccccc12
inactive: [7] 106 % of control | dose: 200.0 mg/kg/injection, schedule: Q04DX002 (ip), vehicle: Klucel (hydroxypropylcellulose) (HPC) 103 % of control | dose: 400.0 mg/kg/injection, schedule: Q04DX002 (ip), vehicle: Klucel (hydroxypropylcellulose) (HPC) 100 % of control

CC(=O)C(C(C)=O)C1C=CCC1 (stereo unspecified)
inactive: [3] 96 % of control | [4] 107 % of control | [5] 89 % of control

CC(C)c1nnnn1C12CC3CC(CC(C3)C1)C2
inactive: dose: 100.0 mg/kg/injection, schedule: Q01DX001 (ip), vehicle: saline 101 % of control | dose: 200.0 mg/kg/injection, schedule: Q01DX001 (ip), vehicle: saline 101 % of control | dose: 400.0 mg/kg/injection, schedule: Q01DX001 (ip), vehicle: saline 93 % of control

O=c1oc2cc(O)ccc2c2ccccc12
inactive: [8] 98 % of control | [10] 96 % of control | [12] 102 % of control

CN1CCC(OC(=O)N(c2ccccc2)c2ccccc2)CC1
inactive: dose: 100.0 mg/kg/injection, schedule: Q01DX001 (ip), vehicle: saline with Tween-80 99 % of control | dose: 200.0 mg/kg/injection, schedule: Q01DX001 (ip), vehicle: saline with Tween-80 105 % of control

CN(C)C(=S)Oc1ccc([N+](=O)[O-])cc1Cl
inactive: [6] 103 % of control | [9] 95 % of control | [11] 100 % of control

Nc1ccccc1SC1CC(=O)N(c2cccc3ccccc23)C1=O (stereo unspecified)
inactive: [8] 89 % of control | [12] 90 % of control

c1ccc(COc2ccccn2)cc1
inactive: dose: 50.0 mg/kg/injection, schedule: Q01DX009 (ip), vehicle: Klucel (hydroxypropylcellulose) (HPC) 95 % of control | [6] 97 % of control | [8] 98 % of control | [10] 98 % of control

CNC(=O)N(C)N
inactive: dose: 12.5 mg/kg/injection, schedule: Q01DX009 (ip), vehicle: saline 97 % of control | dose: 25.0 mg/kg/injection, schedule: Q01DX009 (ip), vehicle: saline 95 % of control | dose: 50.0 mg/kg/injection, schedule: Q01DX009 (ip), vehicle: saline 119 % of control

COc1cc(/C=C2\C(=O)NC(=O)N(c3ccccc3)C2=O)cc(OC)c1OC
inactive: dose: 50.0 mg/kg/injection, schedule: Q01DX009 (ip), vehicle: saline with Tween-80 101 % of control | [2] 100 % of control

O=C(Nc1ccc(C(=O)Nc2ccc(C3=NCCN3)cc2)cc1)Nc1ccc(C(=O)Nc2ccc(C3=NCCN3)cc2)cc1
inactive: dose: 15.0 mg/kg/injection, schedule: Q01DX Z (ip), vehicle: methylcellulose (MC) 102 % of control | dose: 30.0 mg/kg/injection, schedule: Q01DX Z (ip), vehicle: methylcellulose (MC) 103 % of control | dose: 60.0 mg/kg/injection, schedule: Q01DX Z (ip), vehicle: methylcellulose (MC) 101 % of control | dose: 62.0 mg/kg/injection, schedule: Q01DX Z (ip), vehicle: carboxymethylcellulose (CMC) 91 % of control | dose: 120.0 mg/kg/injection, schedule: Q01DX Z (ip), vehicle: methylcellulose (MC) 103 % of control | dose: 125.0 mg/kg/injection, schedule: Q01DX Z (ip), vehicle: carboxymethylcellulose (CMC) 91 % of control | dose: 250.0 mg/kg/injection, schedule: Q01DX Z (ip), vehicle: carboxymethylcellulose (CMC) 96 % of control

CCOc1nc(N)nc(N)c1-c1ccccc1
inactive: dose: 100.0 mg/kg/injection, schedule: Q04DX002 (ip), vehicle: saline with Tween-80 111 % of control | dose: 200.0 mg/kg/injection, schedule: Q04DX002 (ip), vehicle: saline with Tween-80 96 % of control | dose: 400.0 mg/kg/injection, schedule: Q04DX002 (ip), vehicle: saline with Tween-80 100 % of control

CCCCCCC(C)C(COC(=O)c1ccc([N+](=O)[O-])cc1)NCC (stereo unspecified)
inactive: dose: 75.0 mg/kg/injection, schedule: Q01DX001 (ip), vehicle: saline 93 % of control | dose: 150.0 mg/kg/injection, schedule: Q01DX001 (ip), vehicle: saline 96 % of control
